Assay results: article PMC3179182 (Bioorganic & medicinal chemistry letters, 2010)

What was measured:
[1] = test system: mGlu5; test: mGlu5 assays; format: cell-based; settings: mode of mGlu5 pharmacology (NAM, PAM, Ago-PAM, Part. Antag., Inactive)
[2] = molecular target: T1, mGlu5 (Rattus norvegicus, UniProt P31424); test: mGlu5 assays; format: cell-based; settings: NAM IC50 relative to 8
[3] = test system: mGlu5; settings: % partial; cited from earlier work
[4] = molecular target: T1, mGlu5; settings: phenylethynyl pyrimidine series; cited from earlier work
T1 sequence (P31424 21-1203): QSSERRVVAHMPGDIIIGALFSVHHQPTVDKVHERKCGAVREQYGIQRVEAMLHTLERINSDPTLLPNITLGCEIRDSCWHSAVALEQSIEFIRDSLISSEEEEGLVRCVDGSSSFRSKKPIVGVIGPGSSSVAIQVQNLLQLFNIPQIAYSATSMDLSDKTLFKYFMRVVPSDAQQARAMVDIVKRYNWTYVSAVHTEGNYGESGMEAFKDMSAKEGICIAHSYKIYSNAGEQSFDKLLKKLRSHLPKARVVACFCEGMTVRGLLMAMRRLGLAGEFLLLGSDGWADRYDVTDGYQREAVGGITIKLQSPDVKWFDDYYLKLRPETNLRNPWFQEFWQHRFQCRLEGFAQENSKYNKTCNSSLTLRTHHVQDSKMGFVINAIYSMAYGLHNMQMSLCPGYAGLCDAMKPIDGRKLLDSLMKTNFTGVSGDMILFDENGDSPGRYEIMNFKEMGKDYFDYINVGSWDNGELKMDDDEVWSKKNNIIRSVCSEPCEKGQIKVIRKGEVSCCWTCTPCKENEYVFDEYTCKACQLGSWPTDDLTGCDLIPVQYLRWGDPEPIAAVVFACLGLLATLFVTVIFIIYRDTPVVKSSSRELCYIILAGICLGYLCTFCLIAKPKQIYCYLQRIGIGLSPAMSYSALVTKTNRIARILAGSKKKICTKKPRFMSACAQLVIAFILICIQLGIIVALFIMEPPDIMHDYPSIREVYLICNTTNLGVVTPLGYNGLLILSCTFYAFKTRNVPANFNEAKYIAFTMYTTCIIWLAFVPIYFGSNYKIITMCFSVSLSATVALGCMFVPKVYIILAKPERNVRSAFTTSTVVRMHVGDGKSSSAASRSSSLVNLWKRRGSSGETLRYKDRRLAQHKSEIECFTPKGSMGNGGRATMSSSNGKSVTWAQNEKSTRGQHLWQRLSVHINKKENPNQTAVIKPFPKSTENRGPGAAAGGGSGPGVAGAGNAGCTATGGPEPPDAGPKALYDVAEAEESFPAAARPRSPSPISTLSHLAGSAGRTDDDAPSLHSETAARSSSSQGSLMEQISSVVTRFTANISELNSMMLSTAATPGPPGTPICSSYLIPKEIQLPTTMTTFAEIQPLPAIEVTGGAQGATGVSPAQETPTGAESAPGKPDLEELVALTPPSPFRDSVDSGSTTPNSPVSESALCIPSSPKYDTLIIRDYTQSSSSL

T1 sequence (P31424 21-1203): as above

Compound: O=C(C1CC1)N1CCCC[C@@H]1c1nc(-c2cccc(F)c2)no1 [22a]
- Pharmacology [1]: ago-PAMs

Compound: O=C(C1CCC1)N1CCCC[C@@H]1c1nc(-c2cccc(F)c2)no1 [22b/20e]
- Pharmacology ([1]; listed as 22b): pure PAM activity

Compound: O=C(C1CCCC1)N1CCCC[C@@H]1c1nc(-c2cccc(F)c2)no1 [22c]
- Pharmacology [1]: ago-PAMs

Compound: O=C(C1CCC1)N1CCC[C@H](c2nc(-c3cccc(Cl)c3)no2)C1 [(S)-15e]
- increase in potency over 8 [2]: ~ 41 fold

Compound: Cc1cccc(-c2noc([C@H]3CCCCN3C(=O)C3CCCCC3)n2)c1 [21d]
- Pharmacology [1]: full non-competitive antagonists (NAMs)

Compound: O=C(C1CCC1)N1CCCC1c1nc(-c2cccc(F)c2)no1 (stereo not shown) [23a]
- Pharmacology [1]: low micromolar PAMs

Compound: O=C(C1CCC1)N1CCC[C@@H]1c1nc(-c2cccc(F)c2)no1 [(R)-23a]
- Pharmacology [1]: potent mGlu5 PAM

Compound: O=C(C1CCC1)N1CCCC1c1nc(-c2ccc(F)cc2)no1 (stereo not shown) [23b]
- Pharmacology [1]: low micromolar PAMs

Compound: C(#Cc1cncnc1)c1ccccc1 [compound 2]
- partial antagonism [3]: 71%

Compound: O=C(C1CCCCC1)N1CCCC[C@@H]1c1nc(-c2cccc(F)c2)no1 [22d]
- Pharmacology [1]: pure PAM activity

Compound: Cc1cccc(-c2noc([C@H]3CCCCN3C(=O)C3CCCC3)n2)c1 [21c]
- Pharmacology [1]: partial antagonists

Compound: O=C(C1CCC1)N1CCC[C@H]1c1nc(-c2cccc(F)c2)no1 [(S)-23a]
- Pharmacology [1]: very weak PAM

Compound: Cc1cccc(C#Cc2cncnc2)c1 [compound 3]
- IC50 [4]: 7.5 nM
